The values below come from article PMC5218480 (PLoS ONE, 2017).

The structures appear in SMILES notation.

The assay concerns MV-4-11 cells. The assay can be described thus: Gene expression microarray analysis (Affymetrix PrimeView) and GSEA. The class given is cell-based, human. Also on record: RFU PODN (11730768_x_at) / Fold change /veh PODN (11730768_x_at) / RFU LINC00158 (11744669_a_at) / Fold change /veh LINC00158 (11744669_a_at) / RFU DUSP10 (11751237_a_at) / Fold change /veh DUSP10 (11751237_a_at) / RFU ID3 (11757404_x_at) / Fold change /veh ID3 (11757404_x_at) / RFU PLEKHG5 (11737974_s_at) / Fold change /veh PLEKHG5 (11737974_s_at) / RFU LRRC4B (11730491_at) / Fold change /veh LRRC4B (11730491_at) / RFU GIMAP4 (11747438_a_at) / Fold change /veh GIMAP4 (11747438_a_at) / RFU KRT8 (11758183_x_at) / Fold change /veh KRT8 (11758183_x_at) / RFU CNN1 (11734310_a_at) / Fold change /veh CNN1 (11734310_a_at) / RFU VPS37D (11726825_at) / Fold change /veh VPS37D (11726825_at) / RFU C10orf10 (11716522_x_at) / Fold change /veh C10orf10 (11716522_x_at) / RFU KIR2DL2 /// KIR2DL4 /// KIR2DL5A /// KIR2DL5B /// KIR2DS1 /// KIR2DS2 /// KIR2DS3 /// KIR2DS4 /// KIR3DL3 /// KIR3DL3 /// KIR3DS1 (11738374_at) / Fold change /veh KIR2DL2 /// KIR2DL4 /// KIR2DL5A /// KIR2DL5B /// KIR2DS1 /// KIR2DS2 /// KIR2DS3 /// KIR2DS4 /// KIR3DL3 /// KIR3DL3 /// KIR3DS1 (11738374_at) / RFU C1QL1 (11718748_at) / Fold change /veh C1QL1 (11718748_at) / RFU TMPRSS4 (11747572_a_at) / Fold change /veh TMPRSS4 (11747572_a_at) / RFU HAMP (11756126_x_at) / Fold change /veh HAMP (11756126_x_at) / RFU RNFT2 (11725882_a_at) / Fold change /veh RNFT2 (11725882_a_at) / RFU NR4A2 (11747474_a_at) / Fold change /veh NR4A2 (11747474_a_at) / RFU ABCC12 (11746883_a_at) / Fold change /veh ABCC12 (11746883_a_at) / RFU TMEM136 (11760407_x_at) / Fold change /veh TMEM136 (11760407_x_at) / RFU CLDN22 /// WWC2 (11732394_at) / Fold change /veh CLDN22 /// WWC2 (11732394_at) / RFU HLA-DPB1 (11760878_x_at) / Fold change /veh HLA-DPB1 (11760878_x_at) / RFU SPINT1 (11716480_a_at) / Fold change /veh SPINT1 (11716480_a_at) / RFU GAP43 (11754022_s_at) / Fold change /veh GAP43 (11754022_s_at) / RFU A4GNT (11735810_at) / Fold change /veh A4GNT (11735810_at) / RFU PRB3 (11715151_x_at) / Fold change /veh PRB3 (11715151_x_at) / RFU TUBB4B (11761932_at) / Fold change /veh TUBB4B (11761932_at) / RFU CAPN14 (11732068_a_at) / Fold change /veh CAPN14 (11732068_a_at) / RFU TMCC2 (11721928_a_at) / Fold change /veh TMCC2 (11721928_a_at) / RFU IRGQ (11745062_a_at) / Fold change /veh IRGQ (11745062_a_at) / RFU FAM174B (11720279_a_at) / Fold change /veh FAM174B (11720279_a_at) / RFU TMPRSS4 (11748680_a_at) / Fold change /veh TMPRSS4 (11748680_a_at) / RFU FAM212B (11763350_a_at) / Fold change /veh FAM212B (11763350_a_at) / RFU PLEKHG5 (11743358_a_at) / Fold change /veh PLEKHG5 (11743358_a_at) / RFU ZSCAN30 (11745921_a_at) / Fold change /veh ZSCAN30 (11745921_a_at) / RFU CMKLR1 (11741424_a_at) / Fold change /veh CMKLR1 (11741424_a_at) / RFU LOC101060620 /// MAPK8IP1 (11723275_at) / Fold change /veh LOC101060620 /// MAPK8IP1 (11723275_at) / RFU SPTSSB (11747773_x_at) / Fold change /veh SPTSSB (11747773_x_at) / RFU PRSS12 (11739890_at) / Fold change /veh PRSS12 (11739890_at) / RFU BIN1 (11741810_x_at) / Fold change /veh BIN1 (11741810_x_at) / RFU WNT11 (11732464_a_at) / Fold change /veh WNT11 (11732464_a_at) / RFU C10orf10 (11716521_a_at) / Fold change /veh C10orf10 (11716521_a_at) / RFU C5orf56 (11738089_at) / Fold change /veh C5orf56 (11738089_at) / RFU CYB561 (11721691_x_at) / Fold change /veh CYB561 (11721691_x_at) / RFU ANKRD19P (11752326_a_at) / Fold change /veh ANKRD19P (11752326_a_at) / RFU OR2T12 /// OR2T33 /// OR2T8 (11738714_s_at) / Fold change /veh OR2T12 /// OR2T33 /// OR2T8 (11738714_s_at) / RFU VCAN (11748164_a_at) / Fold change /veh VCAN (11748164_a_at) / RFU JSRP1 (11732532_at) / Fold change /veh JSRP1 (11732532_at) / RFU KRTAP10-11 (11738290_x_at) / Fold change /veh KRTAP10-11 (11738290_x_at) / RFU MYO3A (11730013_a_at) / Fold change /veh MYO3A (11730013_a_at) / RFU EBF3 (11725865_a_at) / Fold change /veh EBF3 (11725865_a_at) / RFU CAMK2N1 (11719241_x_at) / Fold change /veh CAMK2N1 (11719241_x_at) / RFU C5orf56 (11738088_a_at) / Fold change /veh C5orf56 (11738088_a_at) / RFU OLFML3 (11715873_a_at) / Fold change /veh OLFML3 (11715873_a_at) / RFU LOC100653217 /// NTM (11731650_a_at) / Fold change /veh LOC100653217 /// NTM (11731650_a_at) / RFU MAPK11 (11762145_a_at) / Fold change /veh MAPK11 (11762145_a_at) / RFU FIZ1 (11724087_x_at) / Fold change /veh FIZ1 (11724087_x_at) / RFU OASL (11726364_x_at) / Fold change /veh OASL (11726364_x_at) / RFU SOX15 (11748057_x_at) / Fold change /veh SOX15 (11748057_x_at) / RFU CD79A (11719716_a_at) / Fold change /veh CD79A (11719716_a_at) / RFU HIST1H1D (11736915_at) / Fold change /veh HIST1H1D (11736915_at) / RFU CASKIN2 (11723855_a_at) / Fold change /veh CASKIN2 (11723855_a_at) / RFU LOC730098 (11760151_x_at) / Fold change /veh LOC730098 (11760151_x_at) / RFU OR4N2 (11742367_at) / Fold change /veh OR4N2 (11742367_at) / RFU PRRT2 (11749266_a_at) / Fold change /veh PRRT2 (11749266_a_at) / RFU SNX32 (11753110_a_at) / Fold change /veh SNX32 (11753110_a_at) / RFU CDHR5 (11726645_a_at) / Fold change /veh CDHR5 (11726645_a_at) / RFU RCAN1 (11760418_a_at) / Fold change /veh RCAN1 (11760418_a_at) / RFU FAM167A (11723789_a_at) / Fold change /veh FAM167A (11723789_a_at) / RFU FAM26E (11764081_at) / Fold change /veh FAM26E (11764081_at) / RFU ISYNA1 (11749810_s_at) / Fold change /veh ISYNA1 (11749810_s_at) / RFU ACY1 (11761880_at) / Fold change /veh ACY1 (11761880_at) / RFU 11764098_at / Fold change /veh 11764098_at / RFU SAMD14 (11745864_x_at) / Fold change /veh SAMD14 (11745864_x_at) / RFU NPB (11741838_a_at) / Fold change /veh NPB (11741838_a_at) / RFU TMPRSS6 (11731388_a_at) / Fold change /veh TMPRSS6 (11731388_a_at) / RFU KRTAP10-2 (11738614_at) / Fold change /veh KRTAP10-2 (11738614_at) / RFU ARHGAP8 /// PRR5-ARHGAP8 (11727945_x_at) / Fold change /veh ARHGAP8 /// PRR5-ARHGAP8 (11727945_x_at) / RFU KRTAP5-7 /// NADSYN1 (11734609_at) / Fold change /veh KRTAP5-7 /// NADSYN1 (11734609_at) / RFU RASL12 (11751679_a_at) / Fold change /veh RASL12 (11751679_a_at) / RFU CDKN2B (11736163_a_at) / Fold change /veh CDKN2B (11736163_a_at) / RFU PRF1 (11729649_at) / Fold change /veh PRF1 (11729649_at) / RFU, ZNF638 /// ZNF638-IT1 / Fold change vs veh, ZNF638 /// ZNF638-IT1 / RFU, PANK3 / Fold change vs veh, PANK3 / RFU, SH3YL1 / Fold change vs veh, SH3YL1 / RFU, ZEB2 / Fold change vs veh, ZEB2 / RFU, NRIP1 / Fold change vs veh, NRIP1 / RFU, PTTG1IP / Fold change vs veh, PTTG1IP / RFU, CAPN2 / Fold change vs veh, CAPN2 / RFU, MED14 / Fold change vs veh, MED14 / RFU, SNORA58 / Fold change vs veh, SNORA58 / RFU, C1orf63 / Fold change vs veh, C1orf63 / RFU, LRRFIP1 / Fold change vs veh, LRRFIP1 / RFU, NDUFAF7 / Fold change vs veh, NDUFAF7 / RFU, SLC12A2 / Fold change vs veh, SLC12A2 / RFU, IBTK / Fold change vs veh, IBTK / RFU, ESF1 / Fold change vs veh, ESF1 / Fold change vs veh, TMEM50B / RFU, TAOK1 / Fold change vs veh, TAOK1 / RFU, ACBD3 / Fold change vs veh, ACBD3 / RFU, TMA16 / Fold change vs veh, TMA16 / RFU, RWDD3 / Fold change vs veh, RWDD3 / RFU, BCAT1 / Fold change vs veh, BCAT1 / RFU, EDEM3 / Fold change vs veh, EDEM3 / RFU, TMEM33 / Fold change vs veh, TMEM33 / RFU, WDR75 / Fold change vs veh, WDR75 / RFU, AHCTF1 / Fold change vs veh, AHCTF1 / RFU, TFRC / Fold change vs veh, TFRC / RFU, ZDHHC17 / Fold change vs veh, ZDHHC17 / RFU, NOM1 / Fold change vs veh, NOM1 / RFU, ARL8B / Fold change vs veh, ARL8B / RFU, ZBTB11 / Fold change vs veh, ZBTB11 / RFU, TAMM41 / Fold change vs veh, TAMM41 / RFU, KIAA1704 /// LOC100996395 / Fold change vs veh, KIAA1704 /// LOC100996395 / RFU, ING1 / Fold change vs veh, ING1 / RFU, TRMT61B / Fold change vs veh, TRMT61B / RFU, FUBP3 / Fold change vs veh, FUBP3 / RFU, TP53 / Fold change vs veh, TP53 / RFU, TNKS2 / Fold change vs veh, TNKS2 / RFU, ZFP14 / Fold change vs veh, ZFP14 / RFU, ACTR2 / Fold change vs veh, ACTR2 / RFU, PPP3R1 / Fold change vs veh, PPP3R1 / RFU, PIK3R1 / Fold change vs veh, PIK3R1 / RFU, HNRNPA1 / Fold change vs veh, HNRNPA1 / RFU, RNF170 / Fold change vs veh, RNF170 / RFU, ZNF28 / Fold change vs veh, ZNF28 / RFU, RNGTT / Fold change vs veh, RNGTT / RFU, OGT / Fold change vs veh, OGT / RFU, BRD1 / Fold change vs veh, BRD1 / RFU, MARS / Fold change vs veh, MARS / RFU, ZNF655 / Fold change vs veh, ZNF655 / RFU, FAHD1 / Fold change vs veh, FAHD1 / RFU, BDP1 / Fold change vs veh, BDP1 / RFU, LRRCC1 / Fold change vs veh, LRRCC1 / RFU, ARID1A / Fold change vs veh, ARID1A / RFU, ZNF146 / Fold change vs veh, ZNF146 / RFU, ZNF330 / Fold change vs veh, ZNF330 / RFU, GPN3 / Fold change vs veh, GPN3 / RFU, C9orf123 / Fold change vs veh, C9orf123 / RFU, N4BP2L2 / Fold change vs veh, N4BP2L2 / RFU, ARFIP1 / Fold change vs veh, ARFIP1 / RFU, FAM179B / Fold change vs veh, FAM179B / RFU, BCL10 / Fold change vs veh, BCL10 / RFU, UHRF1BP1L / Fold change vs veh, UHRF1BP1L / RFU, BET1 / Fold change vs veh, BET1 / RFU, CNOT2 / Fold change vs veh, CNOT2 / RFU, ZNF268 / Fold change vs veh, ZNF268 / Fold change vs veh, ZNF507 / RFU, DGCR2 / Fold change vs veh, DGCR2 / RFU, WDSUB1 / Fold change vs veh, WDSUB1 / Fold change vs veh, HSP90B1 /// MIR3652 / RFU, ADSS / Fold change vs veh, ADSS / RFU, GK / Fold change vs veh, GK / RFU, ZNF148 / Fold change vs veh, ZNF148 / RFU, TAF9 / Fold change vs veh, TAF9 / RFU, SLC1A5 / Fold change vs veh, SLC1A5 / RFU, SLMO2 / Fold change vs veh, SLMO2 / RFU, ABCC4 / Fold change vs veh, ABCC4 / RFU, LOC101060439 /// RAP1B / Fold change vs veh, LOC101060439 /// RAP1B / RFU, RFX7 / Fold change vs veh, RFX7 / RFU, GTPBP10 / Fold change vs veh, GTPBP10 / RFU, CNEP1R1 / Fold change vs veh, CNEP1R1 / RFU, BIVM-ERCC5 /// ERCC5 / Fold change vs veh, BIVM-ERCC5 /// ERCC5 / RFU, ILF3 / Fold change vs veh, ILF3 / RFU 11762660_at / Fold change /veh 11762660_at / RFU VCAN (11757783_s_at) / Fold change /veh VCAN (11757783_s_at) / RFU DDX43 (11728927_at) / Fold change /veh DDX43 (11728927_at) / RFU KRT8 (11758188_x_at) / Fold change /veh KRT8 (11758188_x_at) / RFU NKD1 (11759106_at) / Fold change /veh NKD1 (11759106_at) / RFU SRD5A1 (11742802_a_at) / Fold change /veh SRD5A1 (11742802_a_at) / RFU TPSAB1 /// TPSB2 (11721975_s_at) / Fold change /veh TPSAB1 /// TPSB2 (11721975_s_at) / RFU GSTM3 (11746129_a_at) / Fold change /veh GSTM3 (11746129_a_at) / RFU IL23R (11737362_x_at) / Fold change /veh IL23R (11737362_x_at) / RFU TMEM51 (11727254_a_at) / Fold change /veh TMEM51 (11727254_a_at) / RFU PIWIL2 (11732686_x_at) / Fold change /veh PIWIL2 (11732686_x_at) / RFU ORM1 (11744905_x_at) / Fold change /veh ORM1 (11744905_x_at) / RFU CCDC152 (11743942_at) / Fold change /veh CCDC152 (11743942_at) / RFU ECM1 (11717891_a_at) / Fold change /veh ECM1 (11717891_a_at) / RFU IL23R (11748794_a_at) / Fold change /veh IL23R (11748794_a_at) / RFU TNFAIP8L3 (11732012_x_at) / Fold change /veh TNFAIP8L3 (11732012_x_at) / RFU MBOAT4 (11741988_at) / Fold change /veh MBOAT4 (11741988_at) / RFU 11764193_at / Fold change /veh 11764193_at / RFU TMEM53 (11763286_at) / Fold change /veh TMEM53 (11763286_at) / RFU MAGEB2 (11727129_at) / Fold change /veh MAGEB2 (11727129_at) / RFU TMEM200A (11744735_a_at) / Fold change /veh TMEM200A (11744735_a_at) / RFU CCDC152 (11751479_a_at) / Fold change /veh CCDC152 (11751479_a_at) / RFU FAM211A (11726209_a_at) / Fold change /veh FAM211A (11726209_a_at) / RFU RGS16 (11746705_a_at) / Fold change /veh RGS16 (11746705_a_at) / RFU VCAN (11755009_s_at) / Fold change /veh VCAN (11755009_s_at) / RFU RHOB (11743442_s_at) / Fold change /veh RHOB (11743442_s_at) / RFU RGS16 (11720943_a_at) / Fold change /veh RGS16 (11720943_a_at) / RFU RGS16 (11720944_at) / Fold change /veh RGS16 (11720944_at) / RFU, VPS4B / Fold change vs veh, VPS4B / RFU, CREB1 / Fold change vs veh, CREB1 / RFU, DNAJC13 / Fold change vs veh, DNAJC13 / RFU, GNAQ / Fold change vs veh, GNAQ / RFU, CDK5R1 / Fold change vs veh, CDK5R1 / RFU, ZRANB3 / Fold change vs veh, ZRANB3 / RFU, CUL4A / Fold change vs veh, CUL4A / RFU, CCNY / Fold change vs veh, CCNY / RFU, UFL1 / Fold change vs veh, UFL1 / RFU, COG3 / Fold change vs veh, COG3 / RFU, DIAPH2 / Fold change vs veh, DIAPH2 / RFU, SKA2 / Fold change vs veh, SKA2 / RFU, AFF3 / Fold change vs veh, AFF3 / RFU, LMF1 / Fold change vs veh, LMF1 / RFU, IPO11 / Fold change vs veh, IPO11 / RFU, DFFB / Fold change vs veh, DFFB / RFU, FOXP1 / Fold change vs veh, FOXP1 / RFU, CARD8 / Fold change vs veh, CARD8 / RFU, STRN3 / Fold change vs veh, STRN3 / RFU, ADK / Fold change vs veh, ADK / RFU, RASSF2 / Fold change vs veh, RASSF2 / RFU, WIPF1 / Fold change vs veh, WIPF1 / RFU, LARP1B / Fold change vs veh, LARP1B / RFU, RASA1 / Fold change vs veh, RASA1 / RFU, RB1 / Fold change vs veh, RB1 / RFU, PPFIA1 / Fold change vs veh, PPFIA1 / RFU, MAT2A / Fold change vs veh, MAT2A / RFU, CCT5 / Fold change vs veh, CCT5 / RFU, WDR92 / Fold change vs veh, WDR92 / RFU, CUX1 / Fold change vs veh, CUX1 / RFU, TTC7A / Fold change vs veh, TTC7A / RFU, TMEM135 / Fold change vs veh, TMEM135 / RFU, DEPTOR / Fold change vs veh, DEPTOR / RFU, CPM / Fold change vs veh, CPM / RFU, DNAJB6 / Fold change vs veh, DNAJB6 / RFU, CACNA2D3 / Fold change vs veh, CACNA2D3 / RFU, DTX4 / Fold change vs veh, DTX4 / RFU, TFCP2 / Fold change vs veh, TFCP2 / RFU, GMCL1 /// GMCL1P1 / Fold change vs veh, GMCL1 /// GMCL1P1 / RFU, AEBP2 / Fold change vs veh, AEBP2 / RFU, SNHG1 /// SNORD22 /// SNORD25 /// SNORD26 /// SNORD27 /// SNORD28 /// SNORD29 /// SNORD31 / Fold change vs veh, SNHG1 /// SNORD22 /// SNORD25 /// SNORD26 /// SNORD27 /// SNORD28 /// SNORD29 /// SNORD31 / Fold change (Aza/veh), C12orf56 (ProbeSet 11735607_a_at) / Fold change (ACY-1035/veh), C12orf56 (ProbeSet 11735607_a_at) / Fold change (Aza/veh), FGFR1OP (ProbeSet 11751329_s_at) / Fold change (ACY-1035/veh), FGFR1OP (ProbeSet 11751329_s_at) / Fold change (Aza/veh), VPS36 (ProbeSet 11739960_a_at) / Fold change (ACY-1035/veh), VPS36 (ProbeSet 11739960_a_at) / RFU SYPL1 (11715823_x_at) / Fold change /veh SYPL1 (11715823_x_at) / RFU IGFBP7 (11715501_s_at) / Fold change /veh IGFBP7 (11715501_s_at) / RFU REEP3 (11722064_at) / Fold change /veh REEP3 (11722064_at) / RFU IGLL1 (11728026_x_at) / Fold change /veh IGLL1 (11728026_x_at): dose or concentration left out as unconfirmed. The settings on record: MV-4-11 cells, 48 hours.

Turning to `Nc1ccc(-c2cccs2)cc1NC(=O)c1ccc2c(c1)cc(C1CC1)n2CCN1CCOCC1` [ACY-1035], the “Fold change /veh IGLL1 (11728026_x_at)” value was found to be 0.28.
